Source: patent US20250382308A1, “COMPOUNDS ACTIVE TOWARDS BROMODOMAINS” (NUEVOLUTION A/S, priority 2022, published 2025)

Tests used:
[1] = molecular target: first bromodomain of BRD4 (Homo sapiens (Human), UniProt O60885); experiment: Bromoscan binding assay BRD4 (1)
Method: (§1) Compounds were assayed for binding affinity using bromoscan assays and a phosphodiesterase three assay.
(§2) Bromoscan assays were run by DiscoveRx Corporation. The relevant assay names are BRD4 (1) for the first bromodomain of BRD4 and BRD4 (2) for the second bromodomain of BRD4. Further Bromoscan assays covering other bromodomains may be employed to establish the selectivity profile of a compound of interest. To run the Bromoscan assay, a T7 phage strain displaying the relevant bromodomain was grown in parallel in 24-well blocks in an E. coli host derived from the BL21 strain. E. coli were grown to log-phase and infected with T7 phage from a frozen stock (multiplicity of infection=0.4) and incubated with shaking at 32° C. until lysis (90-150 minutes). The lysates were centrifuged (5,000×g) and filtered (0.2 μm) to remove cell debris. […] The liganded beads were blocked with excess biotin and washed with blocking buffer (SeaBlock (Pierce), 1% BSA (bovine serum albumin), 0.05% Tween 20, 1 mM DTT (dithiothreitol)) to remove unbound ligand and to reduce non-specific phage binding. […] Test compounds were prepared as 1000× stocks in 100% DMSO and subsequently diluted 1:10 in monoethylene glycol (MEG) to create stocks at 100× the screening concentration (resulting stock solution is 10% DMSO/90% MEG). The compounds were then diluted directly into the assays such that the final concentration of DMSO and MEG were 0.1% and 0.9%, respectively. All reactions were performed in polystyrene 96-well plates in a final volume of 0.135 ml. […] The bromodomain concentration in the eluates was measured by qPCR (quantitative real-time polymerase chain reaction). Binding constants (Kds) were calculated with a standard dose-response curve using the Hill equation: Response=Blackground+((Signal-Background)/(1+Kd^Hill Slope/Dose^Hill Slope)). The Hill Slope was set to −1. Curves were fitted using a non-linear least square fit with the Levenberg-Marquardt algorithm.

[2] = molecular target: human recombinant phosphodiesterase (PDE3A) (Homo sapiens (Human), UniProt Q14432); experiment: Radiometric PDE3A assay; type: biochemical; conditions: [3H]-cAMP hydrolysis, 20 minutes at 30° C.
Method: Partially purified human recombinant phosphodiesterase (PDE3A) was obtained by cloning cDNA and expressing in S. frugiperda insect cells using a baculovirus expression system. Cells were harvested from culture by centrifuging at 400×g for 5 minutes. Cell pellet was resuspended in 20 ml of RIPA Buffer (150 mM NaCl, 10 mM Tris, 0.1% NP-40, pH8.3), 4 ml/200 ml of culture, plus protease inhibitors (100 μl/10 ml) and incubated on ice for 10-20 minutes then spun at 3500×g for 10 minutes at 4° C. Supernatant was kept and the pellet thrown away. Tritium-labeled cyclic AMP was hydrolysed to 5′-AMP by PDE3A. The 5′-AMP was then further hydrolysed to adenosine by nucleotidase in snake venom. An anion-exchange resin binds all charged nucleotides and leaves [3H]adenosine as the only labeled compound to be counted by liquid scintillation. The radiometric assay method is a modification of the two-step method of Thompson and Appleman [Biochemistry 10; 311-316; 1971], adapted for a 96 well plate format. 50 μl of diluted PDE3A was incubated with 50 μl of [3H]-CAMP (specific activity 25 Ci/mmol) and 11 μl of 50% DMSO (or compound dilution) for 20 minutes at 30° C. The enzyme was diluted in 20 mM Tris HCl pH7.4 (×2.2 final concentration) and [3H]-cAMP were diluted in 10 mM MgCl2, 40 mM Tris HCl pH 7.4 (×2.2 final concentration). Reactions were carried out in Greiner 96 deep well 1 ml master-block. The plates were centrifuged for 9 seconds before the 20 minutes incubation. The reaction was terminated by denaturing the PDE enzyme (at 70° C. for 2 minutes, plates were left to cool on ice for 10 minutes) after which 25 μl snake venom nucleotidase (225 ug/ml final concentration) was added and incubated for 10 minutes (at 30° C.), plates were centrifuged for 9 seconds before incubation. After incubation 200 μl Dowex resin (1×8, 200-400 mesh) was added and the plate was shaken for 20 minutes then centrifuged for 3 minutes at 1000×g. 50 μl of supernatant was removed and added to 200 μl of MicroScint-20 in white plates (Greiner 96-well Optiplate) and shaken for 30 minutes before reading on Perkin Elmer TopCount Scintillation Counter. GraphPad Prism™ was used to calculate the IC50 values using a sigmoidal dose response (variable slope). The analysis measures 4 parameters including the best fit values for the bottom and top fit of the curve, the hill slope value and the IC50 value.

[3] = molecular target: second bromodomain of BRD4 (Homo sapiens (Human), UniProt O60885); experiment: Bromoscan binding assay BRD4 (2); conditions: geometric mean where multiple measurements have been made
Method: as §1, §2

Sequence of human recombinant phosphodiesterase (PDE3A) (Q14432 whole entry): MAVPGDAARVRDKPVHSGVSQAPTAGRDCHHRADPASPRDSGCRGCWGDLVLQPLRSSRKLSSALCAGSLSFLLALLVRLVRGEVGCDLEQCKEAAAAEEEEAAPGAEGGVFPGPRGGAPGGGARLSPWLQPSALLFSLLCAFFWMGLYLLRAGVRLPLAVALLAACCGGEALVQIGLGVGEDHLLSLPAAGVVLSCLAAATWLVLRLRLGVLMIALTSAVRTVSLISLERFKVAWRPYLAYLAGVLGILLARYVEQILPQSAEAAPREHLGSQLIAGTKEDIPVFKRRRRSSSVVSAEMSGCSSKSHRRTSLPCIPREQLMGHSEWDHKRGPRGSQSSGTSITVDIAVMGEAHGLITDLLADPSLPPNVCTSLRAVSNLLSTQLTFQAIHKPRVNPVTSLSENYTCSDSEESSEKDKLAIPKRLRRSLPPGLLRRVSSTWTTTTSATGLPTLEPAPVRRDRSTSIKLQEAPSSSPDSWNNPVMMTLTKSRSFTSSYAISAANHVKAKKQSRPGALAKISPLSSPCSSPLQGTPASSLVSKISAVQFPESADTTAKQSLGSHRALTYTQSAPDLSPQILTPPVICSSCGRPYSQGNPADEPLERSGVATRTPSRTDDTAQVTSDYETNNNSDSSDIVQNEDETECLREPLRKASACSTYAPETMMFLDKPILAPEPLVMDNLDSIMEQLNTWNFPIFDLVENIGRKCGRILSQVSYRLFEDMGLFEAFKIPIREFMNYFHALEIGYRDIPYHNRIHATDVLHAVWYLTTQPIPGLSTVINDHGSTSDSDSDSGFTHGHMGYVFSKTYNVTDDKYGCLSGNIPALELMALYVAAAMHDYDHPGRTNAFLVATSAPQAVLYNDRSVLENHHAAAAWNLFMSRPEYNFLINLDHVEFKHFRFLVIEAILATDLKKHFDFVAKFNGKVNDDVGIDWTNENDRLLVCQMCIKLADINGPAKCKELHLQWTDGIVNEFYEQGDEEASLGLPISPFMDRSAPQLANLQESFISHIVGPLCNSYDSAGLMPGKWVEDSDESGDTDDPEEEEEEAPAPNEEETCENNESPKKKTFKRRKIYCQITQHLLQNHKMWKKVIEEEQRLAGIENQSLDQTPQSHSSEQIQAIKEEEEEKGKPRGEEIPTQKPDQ

SMILES: COc1cc(NC(=O)c2cc3c(nc2N2CC[C@H](F)C2)COC3)cc2c(C)cc(=O)[nH]c12 [Example 41, 2-[(3S)-3-fluoropyrrolidin-1-yl]-N-(8-methoxy-4-methyl-2-oxo-1H-quinolin-6-yl)-5,7-dihydrofuro[3,4-b]pyridine-3-carboxamide]
- Kd ([1]; Bromoscan, geometric mean where multiple measurements have been made): 0.092 µM
- Selectivity BRD4(2)/BRD4(1) ([1]; ratio BRD4(2) Kd / BRD4(1) Kd): >109
- IC50 [2]: > 10 µM
- Kd [3]: > 10 µM
